This is an account of results in patent publication US7659278B2, “Use of low molecular weight compounds for preparing a medicament useful in treating mutant p53 mediated diseases” (Aprea AB, priority 2002, dated 2010).

Structures are written as SMILES.

The subject of data set [1] is p53-responsive EGFP reporter in SKOV-His-175 cells. In words: p53-responsive EGFP reporter in SKOV-His-175 cells. The data set is classed as cell-based, human. As for the experimental part: FIG. 9B, mutant p53-dependent activation of the wild-type p53-responsive EGFP reporter in PRIMA-1-treated SKOV-His-175 cells. […] FIG. 9C, MIRA-1 induced wild-type p53-responsive EGFP reporter in SKOV-His-175 cells.
The p53-EGFP plasmid contains 13 synthetic p53 consensus DNA binding sites in front of the EGFP coding sequence. Transient transfections experiments were performed with Lipofectamine 2000 according to the manufacturer's recommendations (Invitrogemm Life Technologies, Groningen, The Netherlands).
We also transiently transfected SKOV-His-175 cells with a p53-responsive EGFP reporter.

The target of data set [2] is T1, endogenous mutant p53 proteins (Homo sapiens, UniProt P04637, C176F).
T1 construct: cellular extracts of human tumor cell lines carrying different p53 mutants as a source for endogenous p53 protein; endogenous in cells; host or cells: human tumour cell lines (e.g. Burkitt lymphoma BL-60; KRC/Y renal carcinoma)
The data set is classed as biochemical. The conditions noted are these: KRC/Y cell extract. As for the experimental part:
(§1) PAb421 antibody was added to all reaction mixtures. […] Monoclonal antibody PAb421 was added to the reaction mixtures in lanes 2-8; PAb1801 was added to the reaction mixtures in lanes 9-15.
(§2) The GST-p53 proteins were prepared as described (Selivanova et al., 1997). Band shift assays were performed in binding buffer containing 100 mM HEPES pH 7.5, 50 mM KCl, 1 mg/ml BSA, 0.1% Triton X-100, 2 mM MgC12 and 1 mM DTT essentially as in (Selivanova et al., 1996).

In data set [3] the target is T2, endogenous mutant p53 proteins (Homo sapiens, UniProt P04637, R282W).
T2 construct: cellular extracts of human tumor cell lines carrying different p53 mutants as a source for endogenous p53 protein; endogenous in cells; host or cells: human tumour cell lines (e.g. Burkitt lymphoma BL-60; KRC/Y renal carcinoma)
Type of data set: biochemical. The note with it: cell extracts from Burkitt lymphoma BL-60 cells. As for the experimental part:
as §1, §2

For data set [4], the target named is T3, GST-His-175 mutant p53 protein (Homo sapiens, UniProt P04637, R175H).
T3 construct: made in house
As to the kind of experiment: Band shift assay, GST-His-175 mutant p53. Type of data set: biochemical. The method, then:
as §1, §2

Another data set has as its system Saos-2 cells lacking p53. In words: Colony formation assay, Saos-2 lacking p53. The note with it: 5 μM, colonies counted after 14 days. Type of data set: cell-based, human. The text has this:
Colonies were stained with Giemsa and counted 14 days after seeding.
The cells were Giemsa stained and scored for the appearance of colonies after 14 days.

For another data set, the system named is Saos-2-His-273 cell line. As to the kind of experiment: Library screening / WST-1 growth suppression and growth curves, Saos-2-His-273. Type of data set: cell-based, human. The conditions noted are these: for growth suppression: with vs without mutant p53 expression, WST-1. The method, then:
In contrast, the effect of treatment on Saos-2 cells lacking p53 expression was rather minor. […] The degree of WST-1 reduction, which reflects a number of living cells, was measured by microplate reader at λ490 nm according to manufacturer (Roche). The growth suppression was calculated as a difference in absorbance at λ 490 nm between untreated and treated cells and expressed in a percent from untreated control. Growth suppression=100%×(control absorbance−treated absorbance)/control absorbance. […] The experimental set up was as described in FIG. 2A. The differences in a viability were statistically significant according to an independent t-test.
(§3) Saos-2-His-273 cell line stably transfected with construct allowing expression of mutant His-273 p53 in a tetracycline-dependent manner was used for screening (Selivanova et al., 1997). p53 expression was inhibited by incubation of cells with doxycycline (5 μg/ml). Cells were grown in 96-well plates at a density of 3000 cells per well with or without doxycycline and treated with 25 μM of the compounds from the NCI library of low molecular weight (LMW) compounds. After 48 hours of incubation the proliferative cell reagent WST-1 (Roche) was added to the cells. The degree of WST-1 reduction, which reflects cell viability, was measured by microplate reader at λ490 nm according to the manufacturer (Roche).
as §3, with “1997).” for “1997). p53 expression was inhibited by incubation of cells with doxycycline (5 μg/ml).”, “doxycycline. The treatment was done at a concentration of” for “doxycycline and treated with”, “each chemical” for “the compounds”, “is proportional to the” for “reflects”, “by a” for “by”, “λ 490=n” for “λ490 nm”
(Formazan colour is commonly taken as a measure of viable cells.)

Data set [5] has as its system MDM2 and p21 in HCT 116 colon carcinoma cells (wild type p53). As to the kind of experiment: Western blot of MDM2 and p21, HCT 116. Type of data set: cell-based, human. For orientation: In western blotting, separated proteins are transferred to a membrane and probed.
Data set [6] in a line: Toxicity assessment in SCID mice. The data set is classed as in vivo. The method, then: (§4) All animal studies were approved by the local animal ethical committee and animal care was in accordance with institutional guidelines. For toxicity assessment, 12 SCID mice (average weight 25 g) were divided in 4 groups. […] Control animals were injected with PBS. We measured weights of the mice for 1 month after the last injection. […] After 3 days the mice were divided into 4 groups. […] Injections were performed twice daily for 3 days. Tumour volume was measured during 2 months.
(§5) In the untreated control group, the average tumour volume after 59 days was 555.7±284 mm3 (means±SE, n=3).

The test system of data set [7] is Saos-2-His-273 human tumour xenografts. In words: Anti-tumour activity, Saos-2-His-273 xenograft in SCID mice. The data set is classed as in vivo. The note with it: after 59 days. The method, then:
SCID mice were injected with Saos-2-His-273 cells. […] Tumour volumes were measured once in three days for two months.
as §4, §5

Data set [8] has as its system p53-responsive lacZ reporter in A431 cells (endogenous His-273 mutant p53). As to the kind of experiment: p53-responsive lacZ reporter in A431 cells. Type of data set: cell-based, human. The conditions noted are these: 50 μM for 20 hours.

In the case of `CCCOCN1C(=O)C=CC1=O` [MIRA-1, 1-(propoxymethyl)-maleimide], the EGFP reporter expression entry in data set [1] (5 μM for 24 hours) is reported as “induction of EGFP was also observed”. The “reactivation of Phe-176 mutant DNA binding” value in [2] is reported as “not reactivated”. Also, in data set [3], the “restoration of DNA binding of Trp-282 mutant p53” value was “able to restore the sequence-specific DNA binding of the endogenous Trp-282 mutant p53”. In addition, in data set [4], the “restoration of specific DNA binding” value is on record as “able to restore the specific DNA binding of the GST-His-175 mutant p53 protein”. Also, the “inhibition of colony formation” value with Saos-2 cells lacking p53 came to 48%. In addition, the growth suppression entry in the data set with Saos-2-His-273 cell line is “suppressed the growth of cells expressing mutant p53 but did not affect the growth of cells lacking p53 expression”. The “MDM2 and p21 protein levels” value in data set [5] is “did not cause any significant changes”.

With `O=C1C2CCN(CC2)C1(CO)CO` [PRIMA-1, 2,2-bis(hydroxymethyl)-1-azabicyclo[2.2.2]octan-3-one], the EGFP reporter expression entry was “strong induction of EGFP expression” in data set [1] (cells expressing mutant p53, 24 hours) and “did not express detectable levels of EGFP” in data set [1] (presence of doxycycline (p53 off)). In addition, the “average weight of mice” value in data set [6] (100 mg/kg i.v. daily for 5 days, after one month of observation) turned out to be 20 ± 0.2 g. Besides, the “changes in behavior or weight” value in data set [6] (intravenous injections, compared with untreated control) is recorded as “did not cause any obvious changes in behavior or weight”. Moreover, the “growth of cells (growth curves)” value with Saos-2-His-273 cell line (absence of mutant p53 expression) is “only caused a minor reduction in growth rate”; with Saos-2-His-273 cell line (cells expressing mutant p53), “completely inhibited growth”. The growth suppression entry in the data set with Saos-2-His-273 cell line was “suppressed the growth of cells expressing mutant p53 but did not affect the growth of cells lacking p53 expression”. Besides, the figures for the average tumour volume in data set [7] (20 mg/kg i.v. twice a day for three days), in data set [7] (intratumour 20 mg/kg twice a day for three days) and in [7] (intravenous 100 mg/kg twice a day for three days) were 53±48.5 mm3, 5.3±2.7 mm3 and 11.7±8 mm3, respectively. For the same compound, in [8], the lacZ reporter induction entry is “appearance of lacZ-positive cells”. Besides, in data set [5], the “MDM2 and p21 protein levels” value was “did not cause any significant changes”.
